Results from a melting point compilation (Tetko et al.).

Details: a range is the spread between reports

First: CCC(C)(C)Cl
Second: CCCC(C)(C)O
The melting point of the first is higher: -74 to -73 °C for the first, -103 to -102 °C for the second.

First: COC(=O)c1cc(OC)cc(OC)c1
Second: COC(=O)c1ccc(Cl)cc1
The melting point of the first is lower: 42 to 43 °C for the first, 43 to 44 °C for the second.

Compared with `Nc1ccc(Cl)cc1C(=O)c1ccccc1`, `COc1ccc(C(=O)c2ccccc2)cc1` is lower in melting point: 96 to 99 °C for the first, 61.5 to 62 °C for the second.

Compared with `N#Cc1cccc2ccccc12`, `Brc1cc2ccccc2c2ccccc12` is higher in melting point: 36 to 37.5 °C for the first, 64 to 64.5 °C for the second.

First: O=C1C=CC(=O)C2C3C=CC(C3)C12 (stereo not given)
Second: O=c1cccccc1O
The melting point of the first is higher: 73 to 77.5 °C for the first, 50.8 to 53 °C for the second.

First: O=C(O)Cc1ccc(-c2ccccc2)cc1
Second: Cc1ccc(OC(=O)c2ccccc2)cc1
The melting point of the first is higher: 160 to 161 °C for the first, 70 to 71.5 °C for the second.

First: CC(C)[N+](=O)[O-]
Second: CC=C(C)C(C)C
The melting point of the first is higher: -93 to -91.3 °C for the first, -124 °C for the second.

Compared with `COC(=O)CCCCCCCCCCC(=O)OC`, `O=C(O)CCCCCCC(=O)O` is higher in melting point: 30 to 31.9 °C for the first, 143 to 144 °C for the second.

First: CCc1ccc(C)c(C)c1
Second: Cc1ccc([N+](=O)[O-])cc1C
The melting point of the first is lower: -67 to -66.9 °C for the first, 29 to 31 °C for the second.

First: O=C(O)c1ccc([N+](=O)[O-])c(O)c1
Second: O=C(O)c1ccccc1[N+](=O)[O-]
The melting point of the first is higher: 230 to 234 °C for the first, 146 to 148 °C for the second.

Compared with `COc1ccc(N=C=S)cc1`, `N#Cc1ccc(Cl)cc1` is higher in melting point: 18 to 19 °C for the first, 92 to 95 °C for the second.

First: Cc1cc(C(=O)O)ccc1N
Second: COC(=O)c1ccccc1N
The melting point of the first is higher: 170 °C for the first, 24 to 24.5 °C for the second.

First: CCOS(=O)(=O)OCC
Second: CCS(=O)(=O)CC
The melting point of the first is lower: -25 to -24 °C for the first, 72 to 73.5 °C for the second.

First: CCc1cc(C)c(C)cc1C
Second: Cc1cccc(C)c1N
The melting point of the first is lower: -14 to -13.5 °C for the first, 8 to 12 °C for the second.

Compared with `Cc1ccc[nH]c1=O`, `Cc1ccccc1C` is lower in melting point: 138 to 142 °C for the first, -25.2 to -25 °C for the second.

First: O=S(=O)(Cl)c1ccc(I)cc1
Second: NC(=O)c1ccc(Cl)cc1
The melting point of the first is lower: 82 to 85 °C for the first, 173 to 178 °C for the second.

First: c1ccc(-c2nnc(-c3ccccc3)o2)cc1
Second: O=C(O)c1cccc(Oc2ccccc2)c1
The melting point of the first is lower: 139 to 140 °C for the first, 148 to 150 °C for the second.

First: CCC1(C)CCCC1
Second: C1CCNCC1
The melting point of the first is lower: -144 °C for the first, -11 to -7 °C for the second.

First: O=C(O)CCc1c[nH]c2ccccc12
Second: CCOc1ccccc1O
The melting point of the first is higher: 134 °C for the first, 26 to 29 °C for the second.

First: O=c1ccc2ccccc2o1
Second: c1ccc2sccc2c1
The melting point of the first is higher: 70 to 71 °C for the first, 30 to 32 °C for the second.

Compared with `CC(=O)NCCCCCC(=O)O`, `CCCC(=O)CC` is lower in melting point: 104 °C for the first, -55.5 to -55 °C for the second.

First: O=C(O)c1cc(Br)cc(Br)c1O
Second: Cc1cc(O)ccc1Br
The melting point of the first is higher: 226 to 228 °C for the first, 59 to 64 °C for the second.

First: CN(C)C(=O)Nc1ccc(Cl)c(Cl)c1
Second: CN(C)c1ccccc1
The melting point of the first is higher: 158 to 159 °C for the first, 2 to 3 °C for the second.

First: Cc1c(C)c(C)c(C)c(C)c1C
Second: Cc1ccc(C(=O)c2ccc(C)cc2)cc1
The melting point of the first is higher: 164 to 168 °C for the first, 94 to 96.5 °C for the second.

Compared with `OCCN1CCOCC1`, `O=C1CCCCC1=O` is higher in melting point: -1.6 to 2 °C for the first, 37 to 40 °C for the second.

First: N#Cc1ccc(C(N)=O)cc1
Second: Fc1ccc(C(F)(F)F)cc1
The melting point of the first is higher: 224 to 227 °C for the first, -42 to -41.7 °C for the second.

First: CC(C)=CC(C)(C)C
Second: CCN(CC)c1ccccc1
The melting point of the first is lower: -106 °C for the first, -38.8 to -38 °C for the second.

Compared with `Nc1ccc(F)c([N+](=O)[O-])c1`, `O=[N+]([O-])c1cccc(Cl)c1` is lower in melting point: 96 to 97.5 °C for the first, 43 to 46 °C for the second.

Compared with `CCCCN`, `C=CCCCCCCCCCC` is higher in melting point: -50 to -49 °C for the first, -37 to -35 °C for the second.

First: NC(=O)NO
Second: c1cc2ccc3ccc4ccc5ccc6ccc1c1c2c3c4c5c61
The melting point of the first is lower: 141 to 144 °C for the first, 437 to 440 °C for the second.
